Results published in PubChem BioAssay (NCI).
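Following 48 hours of exposure in 96-well plates, responses at five concentrations were used to interpolate endpoints linearly. GI50 marks 50% less growth. The concentration for full growth arrest is given as TGI.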

Experiments:
Experiment in all cases: inhibition of tumour cell growth, NCI panel, 48 h
OVCAR-3 ovarian = system: OVCAR-3 ovarian
HCC-2998 colon = system: HCC-2998 colon
CAKI-1 renal = system: CAKI-1 renal
EKVX NSCLC = system: EKVX NSCLC
COLO 205 colon = system: COLO 205 colon
IGROV1 ovarian = system: IGROV1 ovarian
HOP-92 NSCLC = system: HOP-92 NSCLC
OVCAR-5 ovarian = system: OVCAR-5 ovarian
NCI/ADR-RES ovarian = system: NCI/ADR-RES ovarian
HCT-116 colon = system: HCT-116 colon
SN12C renal = system: SN12C renal
ACHN renal = system: ACHN renal
SNB-19 CNS = system: SNB-19 CNS
LOX IMVI melanoma = system: LOX IMVI melanoma
MALME-3M melanoma = system: MALME-3M melanoma
MDA-MB-231 breast = system: MDA-MB-231 breast
SK-MEL-28 melanoma = system: SK-MEL-28 melanoma
RXF 393 renal = system: RXF 393 renal
A549 NSCLC = system: A549 NSCLC
MCF7 breast = system: MCF7 breast
NCI-H23 lung = system: NCI-H23 lung
KM12 colon = system: KM12 colon
MDA-MB-468 breast = system: MDA-MB-468 breast
HT29 colon = system: HT29 colon
SNB-75 CNS = system: SNB-75 CNS
SF-539 CNS = system: SF-539 CNS
UACC-62 melanoma = system: UACC-62 melanoma
UO-31 renal = system: UO-31 renal
SK-OV-3 ovarian = system: SK-OV-3 ovarian
HCT-15 colon = system: HCT-15 colon
UACC-257 melanoma = system: UACC-257 melanoma
NCI-H460 lung = system: NCI-H460 lung
TK-10 renal = system: TK-10 renal
NCI-H522 lung = system: NCI-H522 lung
MDA-MB-435 = system: MDA-MB-435
OVCAR-8 ovarian = system: OVCAR-8 ovarian
HOP-62 NSCLC = system: HOP-62 NSCLC
RPMI-8226 leukemia = system: RPMI-8226 leukemia
OVCAR-4 ovarian = system: OVCAR-4 ovarian
MOLT-4 leukemia = system: MOLT-4 leukemia
HL-60(TB) leukemia = system: HL-60(TB) leukemia
DU-145 prostate = system: DU-145 prostate
HS 578T breast = system: HS 578T breast
SF-268 CNS = system: SF-268 CNS
786-0 renal = system: 786-0 renal
A498 renal = system: A498 renal
PC-3 prostate = system: PC-3 prostate
SF-295 CNS = system: SF-295 CNS
SK-MEL-2 melanoma = system: SK-MEL-2 melanoma
BT-549 breast = system: BT-549 breast
SK-MEL-5 melanoma = system: SK-MEL-5 melanoma
SR leukemia = system: SR leukemia
CCRF-CEM leukemia = system: CCRF-CEM leukemia
T-47D breast = system: T-47D breast
SW-620 colon = system: SW-620 colon
U251 CNS = system: U251 CNS
M14 melanoma = system: M14 melanoma
NCI-H226 lung = system: NCI-H226 lung
K-562 leukemia = system: K-562 leukemia

Molecule Cn1cc(-c2cc(N)n3nc(-c4c[nH]c5ccccc45)cc3n2)c2cc(Cl)ccc21 has a GI50 (OVCAR-3 ovarian) of 4.75 µM, a TGI (OVCAR-3 ovarian) of 29.6 µM and a GI50 (HCC-2998 colon) of 1.8 µM. For the same molecule, the TGI (HCC-2998 colon) was 3.41 µM, the GI50 (CAKI-1 renal) was 2.96 µM and the TGI (CAKI-1 renal) was 12.4 µM. For the same molecule, the GI50 (EKVX NSCLC) was 2.8 µM, the TGI (EKVX NSCLC) was 12.5 µM and the GI50 (COLO 205 colon) was 2.17 µM. For the same molecule, the TGI (COLO 205 colon) was 4.26 µM, the GI50 (IGROV1 ovarian) was 3.61 µM and the TGI (IGROV1 ovarian) was 14.6 µM. It also gave a GI50 (HOP-92 NSCLC) of 2.73 µM, a TGI (HOP-92 NSCLC) of 9.96 µM and a GI50 (OVCAR-5 ovarian) of 2.09 µM. For the same molecule, the TGI (OVCAR-5 ovarian) was 4.81 µM, the GI50 (NCI/ADR-RES ovarian) was 2.85 µM and the TGI (NCI/ADR-RES ovarian) was 9.09 µM. For the same molecule, the GI50 (HCT-116 colon) was 1.84 µM, the TGI (HCT-116 colon) was 3.5 µM and the GI50 (SN12C renal) was 5.3 µM. The TGI (SN12C renal) was 18.8 µM, the GI50 (ACHN renal) was 2.98 µM and the TGI (ACHN renal) was 10.6 µM. The GI50 (SNB-19 CNS) was 4.32 µM, the TGI (SNB-19 CNS) was 16.3 µM and the GI50 (LOX IMVI melanoma) was 1.71 µM. It also gave a TGI (LOX IMVI melanoma) of 3.08 µM, a GI50 (MALME-3M melanoma) of 3.93 µM and a TGI (MALME-3M melanoma) of 14.3 µM. It also gave a GI50 (MDA-MB-231 breast) of 1.9 µM, a TGI (MDA-MB-231 breast) of 3.61 µM and a GI50 (SK-MEL-28 melanoma) of 7.16 µM. It also gave a TGI (SK-MEL-28 melanoma) of 19.9 µM, a GI50 (RXF 393 renal) of 2.47 µM and a TGI (RXF 393 renal) of 8.46 µM. It also gave a GI50 (A549 NSCLC) of 3.15 µM, a TGI (A549 NSCLC) of 13 µM and a GI50 (MCF7 breast) of 1.65 µM. The TGI (MCF7 breast) was 3.58 µM, the GI50 (NCI-H23 lung) was 2.45 µM and the TGI (NCI-H23 lung) was 7.38 µM. The GI50 (KM12 colon) was 2.55 µM, the TGI (KM12 colon) was 6.63 µM and the GI50 (MDA-MB-468 breast) was 1.89 µM. The TGI (MDA-MB-468 breast) was 4.59 µM, the GI50 (HT29 colon) was 1.76 µM and the TGI (HT29 colon) was 3.43 µM. It also gave a GI50 (SNB-75 CNS) of 4 µM, a TGI (SNB-75 CNS) of 18.3 µM and a GI50 (SF-539 CNS) of 1.81 µM. The TGI (SF-539 CNS) was 3.66 µM, the GI50 (UACC-62 melanoma) was 5.36 µM and the TGI (UACC-62 melanoma) was 18.7 µM. It also gave a GI50 (UO-31 renal) of 4.22 µM, a TGI (UO-31 renal) of 16.9 µM and a GI50 (SK-OV-3 ovarian) of 15.9 µM. It also gave a TGI (SK-OV-3 ovarian) of 43 µM, a GI50 (HCT-15 colon) of 1.72 µM and a TGI (HCT-15 colon) of 3.29 µM. For the same molecule, the GI50 (UACC-257 melanoma) was 10.6 µM, the TGI (UACC-257 melanoma) was 23.5 µM and the GI50 (NCI-H460 lung) was 2.35 µM. For the same molecule, the TGI (NCI-H460 lung) was 5.45 µM, the GI50 (TK-10 renal) was 4.34 µM and the TGI (TK-10 renal) was 15.7 µM. For the same molecule, the GI50 (NCI-H522 lung) was 1.64 µM, the TGI (NCI-H522 lung) was 3.43 µM and the GI50 (MDA-MB-435) was 3.69 µM. It also gave a TGI (MDA-MB-435) of 13.4 µM, a GI50 (OVCAR-8 ovarian) of 3.53 µM and a TGI (OVCAR-8 ovarian) of 14.2 µM. The GI50 (HOP-62 NSCLC) was 2.84 µM, the TGI (HOP-62 NSCLC) was 10.8 µM and the GI50 (RPMI-8226 leukemia) was 3.42 µM. For the same molecule, the TGI (RPMI-8226 leukemia) was 29 µM, the GI50 (OVCAR-4 ovarian) was 7.3 µM and the TGI (OVCAR-4 ovarian) was 29.7 µM. For the same molecule, the GI50 (MOLT-4 leukemia) was 1.87 µM, the TGI (MOLT-4 leukemia) was 5.24 µM and the GI50 (HL-60(TB) leukemia) was 2.91 µM. It also gave a TGI (HL-60(TB) leukemia) of 13.7 µM, a GI50 (DU-145 prostate) of 5.69 µM and a TGI (DU-145 prostate) of 22.5 µM. For the same molecule, the GI50 (HS 578T breast) was 4.06 µM, the TGI (HS 578T breast) was 24.3 µM and the GI50 (SF-268 CNS) was 5.21 µM. For the same molecule, the TGI (SF-268 CNS) was 26.6 µM, the GI50 (786-0 renal) was 1.6 µM and the TGI (786-0 renal) was 3.2 µM. The GI50 (A498 renal) was 10.1 µM, the TGI (A498 renal) was 22 µM and the GI50 (PC-3 prostate) was 3.15 µM. It also gave a TGI (PC-3 prostate) of 11.4 µM, a GI50 (SF-295 CNS) of 1.87 µM and a TGI (SF-295 CNS) of 3.79 µM. For the same molecule, the GI50 (SK-MEL-2 melanoma) was 6.75 µM, the TGI (SK-MEL-2 melanoma) was 24 µM and the GI50 (BT-549 breast) was 16.9 µM. For the same molecule, the TGI (BT-549 breast) was 31.9 µM, the GI50 (SK-MEL-5 melanoma) was 7.16 µM and the TGI (SK-MEL-5 melanoma) was 19.7 µM. It also gave a GI50 (SR leukemia) of 0.857 µM, a TGI (SR leukemia) greater than 100 µM and a GI50 (CCRF-CEM leukemia) of 3.22 µM. The TGI (CCRF-CEM leukemia) was greater than 100 µM, the GI50 (T-47D breast) was 4.44 µM and the TGI (T-47D breast) was 20 µM. It also gave a GI50 (SW-620 colon) of 2 µM, a TGI (SW-620 colon) of 3.92 µM and a GI50 (U251 CNS) of 2.01 µM. For the same molecule, the TGI (U251 CNS) was 4.44 µM, the GI50 (M14 melanoma) was 2.15 µM and the TGI (M14 melanoma) was 4.93 µM. It also gave a GI50 (NCI-H226 lung) of 14.1 µM, a TGI (NCI-H226 lung) of 47.1 µM and a GI50 (K-562 leukemia) of 2.27 µM. The TGI (K-562 leukemia) was 5.68 µM.
